In publication PMC11513893, “Discovery of Oral Degraders of the ROS1 Fusion Protein with Potent Activity against Secondary Resistance Mutations” (Journal of Medicinal Chemistry, 2024):

What was measured:
[1] = tested on: Ba/F3 CD74-ROS1 non mutant; assay: Antiproliferation assay (Alamar Blue, 72 h); assay type: cell-based, mouse; details: Mus musculus, BaF3, 72 h, Ba/F3 cells, cell growth inhibition
Source text: (§1) To assess targeted degradation of ROS1 fusion proteins, we first established a mouse pro-B cell line Ba/F3 as a model expressing the CD74-ROS1 oncogene or CD74-ROS1 with clinically observed secondary/tertiary mutations. The Ba/F3 cell line is dependent on interleukin-3 for survival and proliferation. Upon transduction of oncogenic ROS1, Ba/F3 cells become independent of interleukin-3 but dependent on the transduced driver gene.
(§2) Ba/F3 immortalized murine bone marrow–derived pro-B cells were obtained from Creative Biogene (Shirley, NY) and cultured in RPMI supplemented with 10% FBS and IL3 (0.5 ng/mL). Ba/F3 cells expressing ROS1 variants were maintained in RPMI supplemented with 10% FBS and puromycin (0.7 mg/mL). […] Each compound was dissolved in DMSO and serially diluted in RPMI for cell culture experiments.
(§3) To assess the 72 h effect of drug treatment on cell proliferation, 2000 to 3000 cells were plated in replicates of three in 96-well plates. The plates were placed in an incubator at 37 °C, 5% CO2 for 72 h. Following drug treatments, the cells were incubated with the Alamar Blue Assay reagent (BioRad), 5 μL each well for 4 h at 37 °C and 5% CO2. Luminescence was measured on a multiplate reader and analyzed. […] IC50 values were determined using a nonlinear regression model with a sigmoidal dose response in GraphPad. The data were collected based on triplicate experiments, and presented as mean ± SD.
(§4) The resulting virus was used to infect Ba/F3 cells. After retroviral infection, Ba/F3 cells were selected by incubation with puromycin (0.7 mg/mL) for 2 weeks. For Ba/F3 cells infected by the CD74–ROS1 variants, IL3 was withdrawn from the culture medium at least 2 weeks before the experiments.

Ba/F3 ROS1-G2032R = assay: Antiproliferation assay; assay type: cell-based, mouse; details: Mus musculus, BaF3; Ba/F3 cells, cell growth inhibition, 72 h
Source text: as §1, §2, §3, §4

ROS1 = ROS1 degradation in Ba/F3 cells (WES immunoblotting); assay type: cell-based; details: for DC50: concentration needed to reduce ROS1 protein by 50%, Ba/F3 cells; for Dmax (%) (ROS1): maximal degradation of ROS1 in Ba/F3 cells
Experimental: Protein levels were analyzed using a WES instrument according to the WES User Guide from ProteinSimple in duplicate experiments. The samples were mixed with the fluorescent 5 master mix (ProteinSimple) and then heated at 95 °C for 5 min. Boiled samples, biotinylated protein ladder, antibody diluent, Streptavidin-HRP, primary antibodies, ProteinSimple horseradish peroxidase conjugated antirabbit or antimouse secondary antibodies, luminol-peroxide, and wash buffer were loaded into the WES plate (Wes 12–230 kDa Prefilled Plates with Split Buffer, ProteinSimple). The plates and capillary cartridges were loaded into the WES instrument, and protein separation, antibody incubation, and imaging were performed according to manufacturer’s instructions. Compass software (ProteinSimple) was used to acquire the data and to generate the virtual blot image reconstruction and chemiluminescence signal intensity electropherograms. […] Protein levels are expressed as the AUC of the peak chemiluminescence intensity. Antibodies against phospho-ROS1(Tyr2274/2334) (E8F5J), ROS1 (D4D6(R)) were obtained from Cell Signaling Technology.

Row | Compound | IC50 [1] [nM] | IC50 (Ba/F3 ROS1-G2032R) [nM] | DC50 (ROS1) [nM] | Dmax (%) (ROS1) (ROS1)
1 | Cc1cc(Nc2ncc(Cl)c(Nc3ccccc3S(=O)(=O)C(C)C)n2)c(OC(C)C)cc1C1CCN(C2CN(CC3CN(c4ccc5c(c4)C(=O)N(C4CCC(=O)NC4=O)C5=O)C3)C2)CC1 (centres unmarked) [8q, 5-(3-((3-(4-(4-((5-Chloro-4-((2-(isopropylsulfonyl)phenyl)amino)pyrimidin-2-yl)amino)-5-isopropoxy-2-methylphenyl)piperidin-1-yl)azetidin-1-yl)methyl)azetidin-1-yl)-2-(2,6-dioxopiperidin-3-yl)isoindoline-1,3-dione] | 66 ± 6 | 6120 ± 4070 | 57 | 85
2 | Cc1cc(Nc2ncc(Cl)c(Nc3ccccc3S(=O)(=O)C(C)C)n2)c(OC(C)C)cc1C1CCN(C2CN(CC3CCN(c4ccc5c(c4)C(=O)N(C4CCC(=O)NC4=O)C5=O)CC3)C2)CC1 (centres unmarked) [8r, 5-(4-((3-(4-(4-((5-Chloro-4-((2-(isopropylsulfonyl)phenyl)amino)pyrimidin-2-yl)amino)-5-isopropoxy-2-methylphenyl)piperidin-1-yl)azetidin-1-yl)methyl)piperidin-1-yl)-2-(2,6-dioxopiperidin-3-yl)isoindoline-1,3-dione] | 72 ± 3 | > 10000 | 77 | 91
3 | Cc1cc(Nc2ncc(Cl)c(Nc3ccccc3S(=O)(=O)C(C)C)n2)c(OC(C)C)cc1C1CCN(C2CCN(C3CCN(c4ccc5c(c4)C(=O)N(C4CCC(=O)NC4=O)C5=O)CC3)CC2)CC1 (centres unmarked) [8s, 5-(4-(4-((5-Chloro-4-((2-(isopropylsulfonyl)phenyl)amino)pyrimidin-2-yl)amino)-5-isopropoxy-2-methylphenyl)-[1,4′:1′,4″-terpiperidin]-1″-yl)-2-(2,6-dioxopiperidin-3-yl)isoindoline-1,3-dione] | 106 ± 9 | > 10000 | 120 | 82
4 | Cc1cc(Nc2ncc(Cl)c(Nc3ccccc3S(=O)(=O)C(C)C)n2)c(OC(C)C)cc1C1CCN(C2CCN(CC3CCN(c4ccc5c(c4)C(=O)N(C4CCC(=O)NC4=O)C5=O)CC3)CC2)CC1 (centres unmarked) [8t, 5-(4-((4-(4-((5-Chloro-4-((2-(isopropylsulfonyl)phenyl)amino)pyrimidin-2-yl)amino)-5-isopropoxy-2-methylphenyl)-[1,4′-bipiperidin]-1′-yl)methyl)piperidin-1-yl)-2-(2,6-dioxopiperidin-3-yl)isoindoline-1,3-dione] | 147 ± 28 | > 10000 | 155 | 81
5 | COc1cc(N2CCN(c3ccc4c(c3)C(=O)N(C3CCC(=O)NC3=O)C4=O)CC2)ccc1Nc1ncc(Cl)c(Nc2ccccc2P(C)(C)=O)n1 (centres unmarked) [9a, 5-(4-(4-((5-Chloro-4-((2-(dimethylphosphoryl)phenyl)amino)pyrimidin-2-yl)amino)-3-methoxyphenyl)piperazin-1-yl)-2-(2,6-dioxopiperidin-3-yl)isoindoline-1,3-dione] | 112 ± 17 | 251 ± 125 | 133 | 68
6 | COc1cc(N2CCC(N3CCN(C4CN(c5ccc6c(c5)C(=O)N(C5CCC(=O)NC5=O)C6=O)C4)CC3)CC2)ccc1Nc1ncc(Cl)c(Nc2ccccc2P(C)(C)=O)n1 (centres unmarked) [9d, 5-(3-(4-(1-(4-((5-Chloro-4-((2-(dimethylphosphoryl)phenyl)amino)pyrimidin-2-yl)amino)-3-methoxyphenyl)piperidin-4-yl)piperazin-1-yl)azetidin-1-yl)-2-(2,6-dioxopiperidin-3-yl)isoindoline-1,3-dione] | 61 ± 5 | 491 ± 48 | 75 | 90
7 | COc1cc(C2CCN(C3CCN(CC4CCN(c5ccc6c(c5)C(=O)N(C5CCC(=O)NC5=O)C6=O)CC4)CC3)CC2)ccc1Nc1ncc(Cl)c(Nc2ccccc2P(C)(C)=O)n1 (centres unmarked) [9g, 5-(4-((4-(4-((5-Chloro-4-((2-(dimethylphosphoryl)phenyl)amino)pyrimidin-2-yl)amino)-3-methoxyphenyl)-[1,4′-bipiperidin]-1′-yl)methyl)piperidin-1-yl)-2-(2,6-dioxopiperidin-3-yl)isoindoline-1,3-dione] | 7.1 ± 0.9 | 221 ± 26 | 11 | 88
8 | COc1cc(N2CCN(C3CCN(CC4CCN(c5ccc6c(c5)C(=O)N(C5CCC(=O)NC5=O)C6=O)CC4)CC3)CC2)ccc1Nc1ncc(Cl)c(Nc2ccccc2P(C)(C)=O)n1 (centres unmarked) [9h, 5-(4-((4-(4-(4-((5-Chloro-4-((2-(dimethylphosphoryl)phenyl)amino)pyrimidin-2-yl)amino)-3-methoxyphenyl)piperazin-1-yl)piperidin-1-yl)methyl)piperidin-1-yl)-2-(2,6-dioxopiperidin-3-yl)isoindoline-1,3-dione] | 21 ± 8 | 115 ± 12 | 34 | 85
9 | COc1cc(N2CCN(c3ccc4c(c3)CN(C3CCC(=O)NC3=O)C4=O)CC2)ccc1Nc1ncc(Cl)c(Nc2ccccc2P(C)(C)=O)n1 (centres unmarked) [9l, 3-(5-(4-(4-((5-Chloro-4-((2-(dimethylphosphoryl)phenyl)amino)pyrimidin-2-yl)amino)-3-methoxyphenyl)piperazin-1-yl)-1-oxoisoindolin-2-yl)piperidine-2,6-dione] | 6.6 ± 0.4 | 427 ± 32 | 8 | 92
10 | COc1cc(N2CCC(N3CCN(CC4CN(c5ccc6c(c5)CN(C5CCC(=O)NC5=O)C6=O)C4)CC3)CC2)ccc1Nc1ncc(Cl)c(Nc2ccccc2P(C)(C)=O)n1 (centres unmarked) [9p, 3-(5-(3-((4-(1-(4-((5-Chloro-4-((2-(dimethylphosphoryl)phenyl)amino)pyrimidin-2-yl)amino)-3-methoxyphenyl)piperidin-4-yl)piperazin-1-yl)methyl)azetidin-1-yl)-1-oxoisoindolin-2-yl)piperidine-2,6-dione] | 15.3 ± 4.5 | 158 ± 81 | 20 | 94
11 | COc1cc(N2CCC(N3CCN(CC4CCN(c5ccc(NC6CCC(=O)NC6=O)cc5)CC4)CC3)CC2)ccc1Nc1ncc(Cl)c(Nc2ccccc2P(C)(C)=O)n1 (centres unmarked) [9q, 3-((4-(4-((4-(1-(4-((5-Chloro-4-((2-(dimethylphosphoryl)phenyl)amino)pyrimidin-2-yl)amino)-3-methoxyphenyl)piperidin-4-yl)piperazin-1-yl)methyl)piperidin-1-yl)phenyl)amino)piperidine-2,6-dione] | 102 ± 24 | > 10000 | 145 | 33
12 | COc1cc(N2CCC(N3CCN(CC4CCN(c5ccc(C(=O)NC6CCC(=O)NC6=O)cc5)CC4)CC3)CC2)ccc1Nc1ncc(Cl)c(Nc2ccccc2P(C)(C)=O)n1 (centres unmarked) [9r, 4-(4-((4-(1-(4-((5-Chloro-4-((2-(dimethylphosphoryl)phenyl)amino)pyrimidin-2-yl)amino)-3-methoxyphenyl)piperidin-4-yl)piperazin-1-yl)methyl)piperidin-1-yl)-N-(2,6-dioxopiperidin-3-yl)benzamide] | 120 ± 39 | > 10000 | 123 | 28
13 | COc1cc(N2CCC(N3CCN(C(=O)CN4CCN(c5ccc(NC6CCC(=O)NC6=O)cc5)CC4)CC3)CC2)ccc1Nc1ncc(Cl)c(Nc2ccccc2P(C)(C)=O)n1 (centres unmarked) [9s, 3-((4-(4-(2-(4-(1-(4-((5-Chloro-4-((2-(dimethylphosphoryl)phenyl)amino)pyrimidin-2-yl)amino)-3-methoxyphenyl)piperidin-4-yl)piperazin-1-yl)-2-oxoethyl)piperazin-1-yl)phenyl)amino)piperidine-2,6-dione] | 75 ± 9 | > 10000 | 84 | 40
14 | COc1cc(N2CCC(N3CCN(CCC4CCN(c5ccc(NC6CCC(=O)NC6=O)cc5)CC4)CC3)CC2)ccc1Nc1ncc(Cl)c(Nc2ccccc2P(C)(C)=O)n1 (centres unmarked) [9t, 3-((4-(4-(2-(4-(1-(4-((5-Chloro-4-((2-(dimethylphosphoryl)phenyl)amino)pyrimidin-2-yl)amino)-3-methoxyphenyl)piperidin-4-yl)piperazin-1-yl)ethyl)piperidin-1-yl)phenyl)amino)piperidine-2,6-dione] | 61 ± 3 | > 10000 | 56 | 45
